Measured values from patent publication US8158580B2, “Pharmaceutical compositions containing a glycopeptide antibiotic and a cyclodextrin” (Theravance, Inc., priority 2000, dated 2012).
Where two headings read alike, the source gives them in different places.

Details: female rats; for BUN / Creatinine: 50 mg/kg intravenous infusion, serum at 24 hours; for % Recovered (as unchanged parent) Kidney / % Recovered (as unchanged parent) Liver / % Recovered (as unchanged parent) Urine / Serum Conc.: 2-minute intravenous infusion, 24 hours, Mean (SD)
Procedure: Female Sprague-Dawley rates (three per group) were dosed with Compound A (50 mg/kg) formulated in either hydroxypropyl-β-cyclodextrin or 5% dextrose/water or vehicle. The indicated doses were administered in a volume of 10 mL/kg via a 2-minute intravenous infusion. At 24 hours, the animals were sacrificed and serum and tissue samples collected.

[1] = formulation 1% (w/v) CD (hydroxypropyl-β-cyclodextrin)
[2] = formulation 1% CD (hydroxypropyl-β-cyclodextrin), 50 mg/kg
[3] = formulation 5% (w/v) CD (hydroxypropyl-β-cyclodextrin)
[4] = formulation 5% CD (hydroxypropyl-β-cyclodextrin), 50 mg/kg
[5] = formulation 25% (w/v) CD (hydroxypropyl-β-cyclodextrin)
[6] = formulation 25% CD (hydroxypropyl-β-cyclodextrin), 50 mg/kg
[7] = formulation D5W (aqueous 5% dextrose solution, no cyclodextrin)
[8] = formulation D5W (aqueous 5% dextrose solution, no cyclodextrin), 50 mg/kg
[9] = formulations containing a cyclodextrin compared with formulation without, 50 mg/kg

Structure (SMILES): CCCCCCCCCCNCCNC1(C)CC(OC2C(Oc3c4cc5cc3Oc3ccc(cc3Cl)C(O)C3NC(=O)C(NC(=O)C5NC(=O)C(CC(N)=O)NC(=O)C(NC(=O)C(CC(C)C)NC)C(O)c5ccc(c(Cl)c5)O4)c4ccc(O)c(c4)-c4c(cc(O)c(CNCP(=O)(O)O)c4O)C(C(=O)O)NC3=O)OC(CO)C(O)C2O)OC(C)C1O (centres unmarked) [Compound A]
- BUN [1]: 26 ± 5 mg/dL
- Creatinine [1]: 0.34 ± 0.08 mg/dL
- % Recovered (as unchanged parent) Kidney [2]: 5.68 (2.49) %
- % Recovered (as unchanged parent) Liver [2]: 8.47 (0.46) %
- % Recovered (as unchanged parent) Urine [2]: 17.45 (6.92) %
- Serum Conc. [2]: 17.1 (12.1) μg/mL
- BUN [3]: 18 ± 5 mg/dL
- Creatinine [3]: 0.31 ± 0.07 mg/dL
- % Recovered (as unchanged parent) Kidney [4]: 2.08 (0.43) %
- % Recovered (as unchanged parent) Liver [4]: 4.89 (0.81) %
- % Recovered (as unchanged parent) Urine [4]: 40.51 (18.57) %
- Serum Conc. [4]: 1.66 (0.33) μg/mL
- BUN [5]: 13 ± 2 mg/dL
- Creatinine [5]: 0.26 ± 0.02 mg/dL
- % Recovered (as unchanged parent) Kidney [6]: 0.62 (0.12) %
- % Recovered (as unchanged parent) Liver [6]: 1.90 (0.32) %
- % Recovered (as unchanged parent) Urine [6]: 90.91 (8.39) %
- Serum Conc. [6]: 0.86 (0.19) μg/mL
- BUN [7]: 67 ± 2 mg/dL
- Creatinine [7]: 0.72 ± 0.08 mg/dL
- % Recovered (as unchanged parent) Kidney [8]: 17.82 (4.94) %
- % Recovered (as unchanged parent) Liver [8]: 14.19 (3.41) %
- % Recovered (as unchanged parent) Urine [8]: 12.61 (4.60) %
- Serum Conc. [8]: 59.8 (27.1) μg/mL
- liver and kidney accumulation [9]: significantly lower
- urinary recovery [9]: significantly higher
